Assay results reported in US20230077362A1 (CORTEVA AGRISCIENCE LLC, priority 2019, published 2023).
Where two headings read alike, the source gives them in different places.

What was measured:
[1] = tested on: Cabbage Looper (Trichoplusia ni) ("CL"), second instar larvae; experiment: Bioassay on cabbage looper (CL), 128-well diet tray assay; type: in vivo; settings: for CL rating: C = not tested, D = no activity noticed
Method in brief: (§1)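 Covered trays were held at 25° C. under a 14:10 light-dark cycle for five to seven days. Percent mortality was then scored in each well, and activity across eight wells was averaged.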

[2] = tested on: Beet Armyworm (Spodoptera exigua) ("BAW"), second instar larvae; experiment: Bioassay on beet armyworm (BAW), 128-well diet tray assay; type: in vivo; settings: for pest or weed control at 50 µg/cm2: Spodoptera exigua; for BAW rating: C = not tested, D = no activity noticed
Method in brief: as §1

[3] = Trichoplusia ni, read-out: CL (Biological Results, rating)
[4] = read-out: BAW (Biological Results, rating)
[5] = Trichoplusia ni, read-out: CL rating

Structure (SMILES)	pest or weed control at 50 µg/cm2 [1, 3] [%]	pest or weed control at 50 µg/cm2 [2, 4] [%]	further results
COC(C)c1ccc(C)cc1N1C(=O)CS/C1=N\C(=O)Nc1ccc(-c2ncn(-c3ccc(OC(F)(F)F)cc3)n2)cc1C(F)(F)F (stereo not drawn) [Compound J117, (Z)-1-(3-(2-(1-Methoxyethyl)-5-methylphenyl)-4-oxothiazolidin-2-ylidene)-3-(4-(1-(4-(trifluoromethoxy)phenyl)-1H-1,2,4-triazol-3-yl)-2-(trifluoromethyl)phenyl)urea]	50 to 100	50 to 100	–
Cc1ccc(OCCC(F)(F)F)c(N2C(=O)CS/C2=N\C(=O)Nc2ccc(-c3ncn(-c4ccc(C(F)(F)F)cn4)n3)cc2C(F)(F)F)c1 [Compound J305, (Z)-1-(3-(5-Methyl-2-(3,3,3-trifluoropropoxy)phenyl)-4-oxothiazolidin-2-ylidene)-3-(2-(trifluoromethyl)-4-(1-(5-(trifluoromethyl)pyridin-2-yl)-1H-1,2,4-triazol-3-yl)phenyl)urea]	50 to 100	50 to 100	–
Cc1ccc(CC(F)(F)F)c(N2C(=O)CS/C2=N\C(=O)NCCc2ccc(-c3ncn(-c4ccc(OC(F)(F)F)cc4)n3)cc2)c1 [Compound H12]	50 to 100	50 to 100	–
Cc1ccc(COCC(F)(F)F)c(N2C(=O)CS/C2=N\C(=O)Nc2ccc(-c3ncn(-c4ccc(OCC(F)(F)F)nc4)n3)cc2F)c1 [Compound J765, (Z)-1-(2-Fluoro-4-(1-(6-(2,2,2-trifluoroethoxy)pyridin-3-yl)-1H-1,2,4-triazol-3-yl)phenyl)-3-(3-(5-methyl-2-((2,2,2-trifluoroethoxy)methyl)phenyl)-4-oxothiazolidin-2-ylidene)urea]	–	–	pest or weed control at 50 µg/cm2 [1, 5]: 50 to 100%; pest or weed control at 50 µg/cm2 ([2]; read-out: BAW rating): 50 to 100%
Cc1cccc(N2C(=O)CS/C2=N\C(=O)Nc2ccc(-c3ncn(-c4ccc(OC(F)(F)F)cc4)n3)cc2F)c1COCC(F)(F)F [Compound J566]	–	–	CL rating ([1]; Table ABC, species CL): A (50-100); BAW rating ([2]; Table ABC, species BAW): A (50-100)
CCOC(C)c1ccc(C)cc1N1C(=O)CS/C1=N\C(=O)Nc1ccc(-c2cn(-c3ccc(S(F)(F)(F)(F)F)cc3)cn2)cc1F (stereo not drawn) [Compound J594, (Z)-1-(3-(2-(1-Ethoxyethyl)-5-methylphenyl)-4-oxothiazolidin-2-ylidene)-3-(2-fluoro-4-(1-(4-(pentafluoro-λ^6-sulfaneyl)phenyl)-1H-imidazol-4-yl)phenyl)urea]	–	–	pest or weed control at 50 µg/cm2 [1, 5]: 50 to 100%; pest or weed control at 50 µg/cm2 ([2]; read-out: BAW rating): 50 to 100%
CC(C)c1ccc(N(C)C)cc1N1C(=O)CS/C1=N\C(=O)Nc1ccc(-c2ncn(-c3ccc(OC(F)(F)F)cc3)n2)cc1C#N [Compound J242, (Z)-1-(2-Cyano-4-(1-(4-(trifluoromethoxy)phenyl)-1H-1,2,4-triazol-3-yl)phenyl)-3-(3-(5-(dimethylamino)-2-isopropylphenyl)-4-oxothiazolidin-2-ylidene)urea]	50 to 100	50 to 100	–
COc1ccc(C(C)C)c(N2C(=O)CS/C2=N\C(=O)Nc2c(C)cc(-c3ncn(-c4ccc(OC(F)(F)F)cc4)n3)cc2C)c1 [Compound J98, (Z)-1-(2,6-Dimethyl-4-(1-(4-(trifluoromethoxy)phenyl)-1H-1,2,4-triazol-3-yl)phenyl)-3-(3-(2-isopropyl-5-methoxyphenyl)-4-oxothiazolidin-2-ylidene)urea]	50 to 100	50 to 100	–
Cc1ccc(OCC(F)(F)F)c(N2C(=O)CS/C2=N\C(=O)Nc2ccc(-c3ncn(-c4ccc(OC(F)(F)F)cc4)n3)cc2F)c1 [Compound J31, (Z)-1-(2-Fluoro-4-(1-(4-(trifluoromethoxy)phenyl)-1H-1,2,4-triazol-3-yl)phenyl)-3-(3-(5-methyl-2-(2,2,2-trifluoroethoxy)phenyl)-4-oxothiazolidin-2-ylidene)urea]	50 to 100	50 to 100	–
Cc1ccc(C(C)C)c(N2C(=O)CS/C2=N\C(=O)Nc2ccc(-c3ncn(-c4cccc(C(F)(F)F)c4)n3)cc2F)c1 [Compound J140, (Z)-1-(2-Fluoro-4-(1-(3-(trifluoromethyl)phenyl)-1H-1,2,4-triazol-3-yl)phenyl)-3-(3-(2-isopropyl-5-methylphenyl)-4-oxothiazolidin-2-ylidene)urea]	50 to 100	50 to 100	–
Cc1ccc(COCC(Cl)Cl)c(N2C(=O)CS/C2=N\C(=O)Nc2ccc(-c3ncn(-c4ccc(OC(F)(F)F)cc4)n3)cc2C)c1 [Compound J555]	–	–	pest or weed control at 50 µg/cm2 [1, 5]: 50 to 100%; pest or weed control at 50 µg/cm2 ([2]; read-out: BAW rating): 50 to 100%
COC(C)c1ccc(C)cc1N1C(=O)CS/C1=N\C(=O)Nc1ccc(-c2cn(-c3ccc(S(F)(F)(F)(F)F)cc3)cn2)cc1F (stereo not drawn) [Compound J591, (Z)-1-(2-Fluoro-4-(1-(4-(pentafluoro-λ^6-sulfaneyl)phenyl)-1H-imidazol-4-yl)phenyl)-3-(3-(2-(1-methoxyethyl)-5-methylphenyl)-4-oxothiazolidin-2-ylidene)urea]	–	–	pest or weed control at 50 µg/cm2 [1, 5]: 50 to 100%; pest or weed control at 50 µg/cm2 ([2]; read-out: BAW rating): 50 to 100%
CCOCc1ccc(C)cc1N1C(=O)CS/C1=N\C(=O)Nc1ccc(-c2ncn(-c3ccc(S(F)(F)(F)(F)F)cc3)n2)cc1C [Compound J548]	–	–	CL rating ([1]; Table ABC, species CL): A (50-100); BAW rating ([2]; Table ABC, species BAW): A (50-100)
CCc1ccc(COCC(F)(F)F)c(N2C(=O)CS/C2=N\C(=O)Nc2ccc(-c3ncn(-c4ccc(OC(F)(F)F)cc4)n3)cc2C)c1 [Compound J641]	–	–	CL rating ([1]; Table ABC, species CL): A (50-100); BAW rating ([2]; Table ABC, species BAW): A (50-100)
COc1ccc(CC(F)(F)F)c(N2C(=O)CS/C2=N\C(=O)NCC(F)c2ccc(-c3ncn(-c4ccc(OC(F)(F)F)cc4)n3)c(OC)c2)c1 (stereo not drawn) [Compound H17]	50 to 100	50 to 100	–
CCOCc1ccc(C)cc1N1C(=O)CS/C1=N\C(=O)Nc1ccc(-c2ncn(-c3cccc(OC(F)(F)F)c3)n2)cc1F [Compound J711]	–	–	CL rating ([1]; Table ABC, species CL): A (50-100); BAW rating ([2]; Table ABC, species BAW): A (50-100)
Cc1ccc(COCC(F)(F)F)c(N2C(=O)CS/C2=N\C(=O)Nc2ccc(-n3cnc(-c4ccc(OC(F)(F)F)cc4)n3)cc2F)c1 [Compound J689, (Z)-1-(2-Fluoro-4-(3-(4-(trifluoromethoxy)phenyl)-1H-1,2,4-triazol-1-yl)phenyl)-3-(3-(5-methyl-2-((2,2,2-trifluoroethoxy)methyl)phenyl)-4-oxothiazolidin-2-ylidene)urea]	–	–	pest or weed control at 50 µg/cm2 [1, 5]: 50 to 100%; pest or weed control at 50 µg/cm2 ([2]; read-out: BAW rating): 50 to 100%
N#Cc1ccc(OCCC(F)(F)F)c(N2C(=O)CS/C2=N\C(=O)Nc2ccc(-c3ncn(-c4ccc([S+]([O-])C(F)(F)F)cc4)n3)cc2F)c1 (stereo not drawn) [Compound J385, (Z)-1-(3-(5-Cyano-2-(3,3,3-trifluoropropoxy)phenyl)-4-oxothiazolidin-2-ylidene)-3-(2-fluoro-4-(1-(4-((trifluoromethyl)sulfinyl)phenyl)-1H-1,2,4-triazol-3-yl)phenyl)urea]	–	–	pest or weed control at 50 µg/cm2 [1, 5]: 50 to 100%; pest or weed control at 50 µg/cm2 ([2]; read-out: BAW rating): 50 to 100%
Cc1ccc(C(C)C)c(N2C(=O)CS/C2=N\C(=O)Nc2ccc(-c3ncn(-c4ccc(OC(F)(F)F)cn4)n3)cc2C#N)c1 [Compound J259, (Z)-1-(2-Cyano-4-(1-(5-(trifluoromethoxy)pyridin-2-yl)-1H-1,2,4-triazol-3-yl)phenyl)-3-(3-(2-isopropyl-5-methylphenyl)-4-oxothiazolidin-2-ylidene)urea]	50 to 100	50 to 100	–
Cc1ccc(C(F)(F)F)c(N2C(=O)CS/C2=N\C(=O)Nc2ccc(-c3ncn(-c4ccc(OC(F)(F)F)cn4)n3)cc2F)c1 [Compound J271, (Z)-1-(2-Fluoro-4-(1-(5-(trifluoromethoxy)pyridin-2-yl)-1H-1,2,4-triazol-3-yl)phenyl)-3-(3-(5-methyl-2-(trifluoromethyl)phenyl)-4-oxothiazolidin-2-ylidene)urea]	50 to 100	50 to 100	–
Cc1ccc(COCC(F)(F)F)c(N2C(=O)CS/C2=N\C(=O)Nc2ccc(-c3ncn(-c4ccc(OC(F)(F)F)cc4)n3)cc2Br)c1 [Compound J222, (Z)-1-(2-Bromo-4-(1-(4-(trifluoromethoxy)phenyl)-1H-1,2,4-triazol-3-yl)phenyl)-3-(3-(5-methyl-2-((2,2,2-trifluoroethoxy)methyl)phenyl)-4-oxothiazolidin-2-ylidene)urea]	50 to 100	50 to 100	–
COc1cc(COCC(F)(F)F)c(N2C(=O)CS/C2=N\C(=O)Nc2ccc(-c3ncn(-c4ccc(S(F)(F)(F)(F)F)cc4)n3)cc2F)cc1OC [Compound J561]	–	–	CL rating ([1]; Table ABC, species CL): A (50-100); BAW rating ([2]; Table ABC, species BAW): A (50-100)
Cc1ccc(COCC(F)F)c(N2C(=O)CS/C2=N\C(=O)Nc2ccc(-n3cnc(-c4ccc(OC(F)(F)F)cc4)c3)cc2Cl)c1 [Compound J787, (Z)-1-(2-Chloro-4-(4-(4-(trifluoromethoxy)phenyl)-1H-imidazol-1-yl)phenyl)-3-(3-(2-((2,2-difluoroethoxy)methyl)-5-methylphenyl)-4-oxothiazolidin-2-ylidene)urea]	–	–	mortality at 50 µg/cm2 ([1]; Trichoplusia ni, Table ABC, species CL, 128-well diet tray assay, second instar larvae, read-out: CL rating (% control or mortality class)): 50 to 100%; BAW rating (% control or mortality class) ([2]; Table ABC, species BAW, 128-well diet tray assay, second instar larvae): A (50-100)
CCCc1ccc(C)cc1N1C(=O)CS/C1=N\C(=O)Nc1ccc(-c2ncn(-c3ccc(OC(F)(F)F)cc3)n2)cc1C [Compound J53, (Z)-1-(3-(5-Methyl-2-propylphenyl)-4-oxothiazolidin-2-ylidene)-3-(2-methyl-4-(1-(4-(trifluoromethoxy)phenyl)-1H-1,2,4-triazol-3-yl)phenyl)urea]	50 to 100	50 to 100	–
